In paper PMC3610893, “The CouPSTU and TarPQM Transporters in Rhodopseudomonas palustris: Redundant, Promiscuous Uptake Systems for Lignin-Derived Aromatic Substrates” (PLoS ONE, 2013):
Several values for one entry are separate records, joined by “and”; a condition that tells them apart may be missing. Equal values may be shown once.

Columns and labels:
[1] = target: T1, CouP (RPA1789) periplasmic binding-protein (Rhodopseudomonas palustris, UniProt Q6N8W4); assay: Intrinsic tryptophan fluorescence spectroscopy / ligand titrations with CouP (RPA1789); settings: for Quench of intrinsic tryptophan fluorescence of CouP (RPA1789): 0.2 µM ligand added to 0.2 µM protein (equimolar), excitation 280 nm; for K d with CouP that was not urea treated, relative to refolded protein: fluorescence titrations, CouP not urea treated (endogenous ligand not removed), fold higher
T1 sequence (Q6N8W4 27-385): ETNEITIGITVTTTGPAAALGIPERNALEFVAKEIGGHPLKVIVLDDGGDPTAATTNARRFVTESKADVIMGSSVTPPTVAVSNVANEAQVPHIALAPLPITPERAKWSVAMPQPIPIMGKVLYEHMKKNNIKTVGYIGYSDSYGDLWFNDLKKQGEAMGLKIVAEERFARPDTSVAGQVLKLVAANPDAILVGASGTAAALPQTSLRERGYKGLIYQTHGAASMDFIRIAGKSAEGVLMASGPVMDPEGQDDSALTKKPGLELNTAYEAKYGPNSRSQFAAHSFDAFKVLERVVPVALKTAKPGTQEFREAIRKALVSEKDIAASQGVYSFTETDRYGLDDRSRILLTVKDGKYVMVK
Method: (§1) Pure protein was unfolded by dialysis against 1 L of 6 M urea for 16 hours at 4°C. Refolding was effected by dialysis against 2 L of refolding buffer (50 mM Tris-HCl pH 7.2 plus 100 mM NaCl) for 8 hours, the buffer being changed every 2 hours with a final overnight dialysis. Once removed from the dialysis tubing, protein was centrifuged (13,000×g, 10 mins, 4°C) to remove any precipitated misfolded protein.
(§2) Changes in the UV fluorescence of intrinsic tryptophan residues in RPA1782 and RPA1789 were measured using a Cary Eclipse fluorimeter (Varian Ltd, UK) in 10 mM Tris-HCl buffer pH 7.4 at 30°C in a 3 ml volume. Excitation of samples was at 280 nm (5 nm slit width) and emission was recorded at 300–400 nm (20 nm slit width). Ligand titrations were performed with 0.2 µM protein with λex 280 nm λem 340 nm using 5 nm excitation and 20 nm emission slit widths respectively. Except where indicated, data from three independent titrations was used to calculate K d values, by fitting to the quadratic equation for tight binding as previously described.

[2] = target: T2, TarP (RPA1782) periplasmic binding-protein (Rhodopseudomonas palustris, UniProt Q6N8X0); assay: Intrinsic tryptophan fluorescence spectroscopy / ligand titrations with TarP (RPA1782); settings: for Quench of intrinsic tryptophan fluorescence of TarP (RPA1782): equimolar protein and ligand (0.2 µM), excitation 280 nm
T2 sequence (Q6N8X0 20-336): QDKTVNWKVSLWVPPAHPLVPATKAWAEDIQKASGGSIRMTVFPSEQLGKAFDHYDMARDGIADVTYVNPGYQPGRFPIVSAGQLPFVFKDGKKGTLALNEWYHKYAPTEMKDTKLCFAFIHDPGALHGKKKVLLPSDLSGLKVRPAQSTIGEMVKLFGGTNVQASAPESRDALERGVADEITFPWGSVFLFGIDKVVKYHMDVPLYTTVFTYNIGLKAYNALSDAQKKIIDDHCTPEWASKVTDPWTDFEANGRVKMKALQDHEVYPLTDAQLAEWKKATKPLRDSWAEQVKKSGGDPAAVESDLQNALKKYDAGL
Method: as §1, §2

CouP (RPA1789) = target: T3, CouP (RPA1789) (Rhodopseudomonas palustris, UniProt Q6N8W4); assay: Isothermal titration calorimetry (ITC) with RPA1789; format: binding
T3 sequence (Q6N8W4 27-385): T1 sequence (Q6N8W4 27-385)
Method: ITC experiments were carried out using a VP-ITC calorimeter (Microcal, Inc., UK). Ligand stock solutions for ITC experiments were made up in aliquots of the final refolding buffer that RPA1789 was dialysed against (50 mM Tris-HCl pH 7.2 plus 100 mM NaCl) and all reactions used the same buffer. The reaction cell contained 1.8 ml of 50 µM protein in refolding buffer. Ligand titrations were carried out at 20°C (except caffeate which was carried out at 25°C) by the injection of 20×15 µl aliquots of 400 µM ligand, from a 300 µl syringe, for a duration of 35 seconds at 7 minute intervals. After taking into account the baseline and any heats of dilution by the ligand, all titrations were integrated using the ORIGIN software programme associated with the calorimeter then exported to in-house numerical routines for data fitting to the Weissman isotherm.

[3] = target: T1, CouP (RPA1789) periplasmic binding-protein; assay: Intrinsic tryptophan fluorescence spectroscopy / ligand titrations with CouP (RPA1789); settings: CouP not urea treated (endogenous ligand not removed)
RPA1789 = target: RPA1789; design: method as in PMID 22577139; settings: read-out: K d for RPA1789 by ITC (literature); cited from earlier work
[4] = ITC, 20°C, 50 µM protein, 50 mM Tris-HCl pH 7.2 plus 100 mM NaCl

O=C(O)c1ccc(O)cc1 [4-hydroxybenzoate]
Quench of intrinsic tryptophan fluorescence of CouP (RPA1789) [1]: did not produce any fluorescence change
Binding to CouP (RPA1789) ([1]; fluorescence): no evidence of binding
Binding to TarP (RPA1782), fluorescence screen ([2]; equimolar protein and ligand): no evidence of binding

O=C(O)/C=C/c1ccc(O)c(O)c1 [Caffeate, (E)-3-(3,4-dihydroxyphenyl)-2-propenoic acid]
Kd [1]: 2.4 ± 0.8 nM
Quench of intrinsic tryptophan fluorescence of CouP (RPA1789) [1]: 25–50%
K d with CouP that was not urea treated, relative to refolded protein [1]: 200-1,000 fold
Kd [2]: 14 ± 7 nM
Quench of intrinsic tryptophan fluorescence of TarP (RPA1782) [2]: ~5%
Kd (CouP (RPA1789)): 27 ± 0.07 nM
ΔH (binding enthalpy) (CouP (RPA1789); [4]): negligible enthalpy of binding
n (ligand binding stoichiometry) (CouP (RPA1789); ITC, 25°C): 0.776±0.005
ΔH (binding enthalpy) (CouP (RPA1789); ITC, 25°C): 1.78 ± 0.05 kcal/mol
ΔHdil (heats of dilution of the ligands) (CouP (RPA1789); ITC, 25°C): -0.28 kcal/mol
ΔS (binding entropy) (CouP (RPA1789); ITC, 25°C): 40 cal mol^−1 K^−1

O=C(O)/C=C/c1ccccc1 [Cinnamate, (E)-3-phenyl-2-propenoic acid]
Kd [1]: 88 ± 8 nM
Quench of intrinsic tryptophan fluorescence of CouP (RPA1789) [1]: 25–50%
Kd [2]: 50 nM and 33 nM
Quench of intrinsic tryptophan fluorescence of TarP (RPA1782) [2]: ~5%
n (ligand binding stoichiometry) (CouP (RPA1789); ITC, 20°C): 0.757±0.003
ΔHdil (heats of dilution of the ligands) (CouP (RPA1789); ITC, 20°C): -0.43 kcal/mol
ΔS (binding entropy) (CouP (RPA1789); ITC, 20°C): 56 cal mol^−1 K^−1
ΔH (binding enthalpy) (CouP (RPA1789); [4]): 7.45 ± 0.08 kcal/mol
ΔHbind (less favourable enthalpy of binding) (CouP (RPA1789); ITC, CouP, compared with ligands bearing the 4-OH group): > 4 kcal/mol
Binding to CouP that was not urea treated [3]: no evidence for cinnamate binding

O=C(O)/C=C/c1ccc(O)cc1 [Coumarate, (E)-3-(4-hydroxyphenyl)-2-propenoic acid]
Kd [1]: 2.6 ± 0.09 nM
Quench of intrinsic tryptophan fluorescence of CouP (RPA1789) [1]: ~30% and 25–50%
K d with CouP that was not urea treated, relative to refolded protein [1]: 200-1,000 fold
Kd [2]: 8 ± 5 nM
Quench of intrinsic tryptophan fluorescence of TarP (RPA1782) [2]: ~5%
n (ligand binding stoichiometry) (CouP (RPA1789); ITC, 20°C): 0.993±0.003
ΔHdil (heats of dilution of the ligands) (CouP (RPA1789); ITC, 20°C): -0.26 kcal/mol
ΔS (binding entropy) (CouP (RPA1789); ITC, 20°C): 46 cal mol^−1 K^−1
ΔH (binding enthalpy) (CouP (RPA1789); [4]): 3.23 ± 0.03 kcal/mol
Kd (RPA1789): 8600 nM

COc1cc(/C=C/C(=O)O)ccc1O [Ferulate, (E)-3-(4-hydroxy-3-methoxyphenyl)-2-propenoic acid]
Kd [1]: 15 ± 6 nM
Quench of intrinsic tryptophan fluorescence of CouP (RPA1789) [1]: 25–50%
K d with CouP that was not urea treated, relative to refolded protein [1]: 200-1,000 fold
Kd [2]: 15 ± 3 nM
Quench of intrinsic tryptophan fluorescence of TarP (RPA1782) [2]: ~5%
n (ligand binding stoichiometry) (CouP (RPA1789); ITC, 20°C): 0.803±0.002
ΔHdil (heats of dilution of the ligands) (CouP (RPA1789); ITC, 20°C): -0.24 kcal/mol
ΔS (binding entropy) (CouP (RPA1789); ITC, 20°C): 43 cal mol^−1 K^−1
ΔH (binding enthalpy) (CouP (RPA1789); [4]): 3.18 ± 0.03 kcal/mol

COc1cc(C=CC(=O)O)cc(OC)c1O [sinapate, 3-(4-hydroxy-3,5-dimethoxyphenyl)-2-propenoic acid]
Quench of intrinsic tryptophan fluorescence of CouP (RPA1789) [1]: ~5%
